The subject of assay [1] is Rabbit kidney (RK-13) cells. Kind of assay: Toxicity to normal cells, rabbit kidney (RK-13) cells. It is filed as cell-based. The note with it: Oryctolagus cuniculus, normal, non-transformed cells, read-out: IC50 μM, RK Rabbit Kidney. On the procedure: (§1) IC50 values were determined for each cell line. Cells were seeded in 96-well plates at an appropriate cell density as determined from growth kinetics analysis and cultured for 5 days in the absence and presence of the test compounds. Cell proliferation was assessed after the addition of 20 μl of 3-4,5 dimethylthiazol-2,5-diphenyl tetrazolium bromide (MTT, 2.5 mg/ml in PBS, Sigma) for 3-4 hrs at 37° C. according to manufacturer's instructions. IC50 values were calculated from semi-log plots of % of control proliferation on the y-axis against log dose on the x-axis.
(§2) The neonatal foreskin fibroblasts (NFF) were a gift from Dr. Peter Parsons (Queensland Institute of Medical Research). Rabbit kidney (RK-13) cells were obtained from Miller Whalley (Macquarie University). Both cell lines were cultured in RPMI supplemented with 10% FCS(CSL, Australia), penicillin (100 U/ml), streptomycin ([…]), L-glutamine (2 mM) and sodium bicarbonate (1.2 g/L), and cultured at 37° C. in a humidified atmosphere of 5% CO2. IC50 values were determined as described above.

Assay [2] concerns NO synthesis in RAW 264.7 murine macrophages. The assay is described as follows: LPS-induced NO synthesis in RAW 264.7 murine macrophages (Griess). The note with it: 10 μM; relative to vehicle alone; FIG. 6. The assay is classed as cell-based, mouse. The procedure:
The mouse macrophage cell line RAW 264.7 was cultured in DMEM supplemented with foetal calf serum (FCS), […] glutamine and 50 U/ml penicillin/streptomycin. Cells were treated with either test compound (in 0.025% DMSO) or vehicle alone, and added one hour before 50 ng/ml LPS. After incubation for 24 h, culture media was collected for PGE2 or TXB2 measurement by ELISA (Cayman Chemical), and TNFα measurement using an ELISA (Becton Dickinson). Nitrite concentration is a quantitative indicator of NO production and was determined by the Griess Reaction. Briefly, 100 μL of Griess reagent was added to 50 μL of each supernatant in duplicate. The absorbance at 550 nm was measured (Molecular Devices, SpectraMax 250 microplate spectrophotometer, CA, USA), and nitrite concentrations were determined against a standard curve of sodium nitrite. The percentage nitrite inhibition was calculated as: [100−(nitrite concentration of sample/nitrite of vehicle control LPS cells)×100]. Results Test compounds were examined a concentration of 10 μM. […] Consequently, to assess the effect of test compounds on various analytes, cell viability was taken into consideration with the use of the formula: Actual effect of test compound=measured effect−(effect on cell viability×measured effect)
(In general: Nitrite, measured by Griess reagent, commonly stands in for NO production.)

In assay [3] the test system is HPAC. Kind of assay: Anti-cancer activity, HPAC pancreatic cancer cells (MTT). It is filed as cell-based. The note with it: Homo sapiens, 120 h, 5 days.
Assay [4] deals with MM200. Kind of assay: Anti-cancer activity, MM200 melanoma cells (MTT). It is filed as cell-based. The note with it: for IC50: 120 h, 5 days, MTT.
In assay [5] the test system is CP70. The assay is described as follows: Anti-cancer activity, CP70 ovarian cancer cells (MTT). The note with it: 120 h, 5 days. It is filed as cell-based.
Assay [6] in a line: Free radical scavenging with DPPH. The note with it: DPPH, 20 minutes, absorbance 517 nm; Table 4; read-out: Free radical scavenging ability EC50. On the procedure: The antioxidant (free radical trapping) activity of test compounds was assessed using the stable free radical compound 2,2-diphenyl-1-picrylhydrazyl (DPPH). A stock solution of DPPH was prepared at a concentration of […] in ethanol and mixed for 10 minutes prior to use. Test compounds at a concentration of 100 μM were reacted with DPPH for, 20 minutes, alter which time the absorbance at 517 nm was determined. Initial screening of was done at 100 μM. The change in absorbance at 517 nm was compared to a reagent blank (DPPH with ethanol alone). […] The IC50 values were estimated as the concentration of test compound that caused a 0.6 change in absorbance (with 1.2 absorbance units representing total scavenging of the DPPH radical).
The antioxidant (free radical trapping) activity of test compounds was assessed using the stable free radical compound 2,2-diphenyl-1-picrylhydrazyl (DPPH). A stock solution of DPPH was prepared […] in ethanol and mixed for 10 minutes prior to use. Initial screening of test compound at a concentration of 100 μM was reacted with DPPH for 20 minutes, after which time the absorbance at 517 nm was determined. The change in absorbance was compared to a reagent blank (DPPH with ethanol alone). […] The IC50 value was estimated as the concentration of test compound that causes a 0.6 change in absorbance (with 1.2 absorbance units representing total scavenging of the DPPH radical).

Assay [7] has as its system neonatal foreskin fibroblasts (NFF). The assay is described as follows: Toxicity to normal cells, neonatal foreskin fibroblasts. The assay is classed as cell-based. The settings on record: Fibroblast; normal, non-transformed cells; read-out: IC50 μM, NFF Fibroblast. The procedure:
as §1, §2

Assay [8] has as its target T1, GAL4-PPARγ fusion protein (Homo sapiens, UniProt P37231).
T1 construct: host or cells: HEK293 (human embryonic kidney), stably transfected
Kind of assay: PPARγ activity in transfected HEK293 cells (beta-lactamase reporter). It is filed as cell-based. The settings on record: FIG. 13: 1 μM. The procedure: Human HEK293 cells, stably transfected with the PPARγ ligand binding domain fused with the DNA binding domain of the GAL4 protein (GAL4-PPARγ fusion protein), produce beta-lactamase when incubated with PPARγ ligands. Transfected human kidney embryonic cells (Invitrogen Inc., Carlsbad, Calif.) were seeded onto matrigel in 96-well plates and allowed to attach overnight. The following day, vehicle alone (DMSO) or test compound at 1, 5 and 10 μM was added at varying concentrations to cells and incubated for 16-18 hours. Cells were then loaded with a FRET-based fluorescent substrate to assess beta-lactamase activity. Cells were protected from light, and incubated at room temperature for 2 h. Plates were read on a fluorescence plate reader with an excitation wavelength of 409 nm and emission wavelengths of 460 nm and 530 nm. Results were expressed as a ratio of these two wavelengths after the background (cell-free control wells) had been subtracted. PPARγ activity was thus determined by measuring beta-lactamase activity as assessed by a fluorescent product to substrate ratio.

For assay [9], the system named is human umbilical vein smooth muscle cells (HUVSMC). The assay is described as follows: Proliferation of human umbilical vein smooth muscle cells (MTT). It is filed as cell-based. The note with it: 10 μM; 10% FCS, 5 days; FIG. 8. The procedure: The effect of test compounds on human umbilical vein smooth muscle cells (HUVSMC) was examined. Cells were seeded into 96 well plates at a low seeding rate of 1.6×10^3 cells per well, and allowed to attach for 24 hours. The cells were then washed twice with medium without FCS and incubated in medium without FCS for 20 hours to serum starve them. Analogue was prepared in medium without FCS at 20 μM and added to the plates and incubated for one hour. Final analogue concentration was therefore 10 μM. The cells were then stimulated by adding medium +20% FCS, to give a final FCS concentration of 10%. The cells were incubated until the control cells i.e. those with FCS and no compound, were just confluent (5 days). An MTT assay was performed, and difference in absorbance in analogue treated cells from the control was calculated using the formula: test/control*100−100. Results
The effect of test compounds on human umbilical vein smooth muscle cells (HUVSMC), was examined. Cells, tissue explants from a neonate (HRI—passage 2), were seeded into 96 well plates at 1×10^3 cells per well, and allowed to attach for 24 hours. They were then washed twice and incubated in medium without foetal calf serum (FCS) for 24-48 hours to serum-starve them. Test compounds were prepared in medium without FCS and added to the plates and incubated for one hour. Medium with FCS was added to give a final concentration of 10% and the plates incubated for 4-5 days until the controls were just confluent.

Assay [10] concerns TXB2 synthesis in RAW 264.7 murine macrophages. The assay is described as follows: LPS-induced TXB2 synthesis in RAW 264.7 murine macrophages. The assay is classed as cell-based, mouse. The note with it: 10 μM; relative to vehicle alone; FIG. 4. The procedure: (§3) The mouse macrophage cell line RAW 264.7 was cultured in DMEM supplemented with foetal calf serum (FCS), […] glutamine and 50 U/ml penicillin/streptomycin. Cells were treated with either test compound (in 0.025% DMSO) or vehicle alone, and added one hour before 50 ng/ml LPS. After incubation for 24 h, culture media was collected for PGE2 or TXB2 measurement by ELISA (Cayman Chemical), and TNFα measurement using an ELISA (Becton Dickinson). Test compounds were examined a concentration of 10 μM. […] Consequently, to assess the effect of test compounds on various analytes, cell viability was taken into consideration with the use of the formula: Actual effect of test compound=measured effect−(effect on cell viability×measured effect)

The test system of assay [11] is cancer cell lines. Kind of assay: Anti-cancer activity, cancer cell lines tested as a group (MTT). The note with it: CP70, HPAC and MM200. The assay is classed as cell-based.
The subject of assay [12] is PGE2 synthesis in RAW 264.7 murine macrophages. Kind of assay: LPS-induced PGE2 synthesis in RAW 264.7 murine macrophages. It is filed as cell-based, mouse. The note with it: 10 μM; relative to vehicle alone; FIG. 3. The procedure: as §3

T1 sequence (P37231 238-503 limits assumed): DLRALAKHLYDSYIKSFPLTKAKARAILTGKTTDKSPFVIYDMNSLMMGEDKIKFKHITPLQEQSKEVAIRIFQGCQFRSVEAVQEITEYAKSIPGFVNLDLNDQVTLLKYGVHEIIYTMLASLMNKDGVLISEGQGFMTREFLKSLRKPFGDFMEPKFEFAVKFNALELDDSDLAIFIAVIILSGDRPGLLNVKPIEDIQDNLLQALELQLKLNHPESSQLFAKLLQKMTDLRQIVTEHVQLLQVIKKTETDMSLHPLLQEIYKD
T1 sequence (P04386 1-147 partner limits assumed): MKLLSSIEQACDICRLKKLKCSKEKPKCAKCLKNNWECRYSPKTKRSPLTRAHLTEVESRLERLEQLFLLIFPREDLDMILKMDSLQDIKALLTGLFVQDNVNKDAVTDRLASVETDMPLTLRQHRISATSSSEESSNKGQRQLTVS

On to `CCCN1COc2cc3c(cc2C1)C=C(c1ccc(O)cc1)CO3` [Compound 3, 4-(3-Propyl-2,3,4,8-tetrahydrochromeno[6,7-e][1,3]oxazin-7-yl)phenol], for which the IC50 came out at 4.8 µM in assay [1]; 32.2 µM in assay [3]; 8.9 ± 0.1 µM in assay [4]; 30.7 ± 22 µM in assay [5]; 56.2 ± 12.6 µM in assay [7]. For the same compound, in assay [2], the “mean change of LPS-induced NO synthesis” value is “greatest inhibition”. In assay [4], the “toxicity to the MM200 melanoma cell line” value was “selectively toxic”. Moreover, in assay [6], the EC50 came out at 20 µM.

For the compound `Oc1ccc(C2=Cc3cc4c(cc3OC2)OCN(c2ccccc2)C4)cc1` [Compound 7, 4-(3-Phenyl-2,3,4,8-tetrahydrochromeno[6,7-e][1,3]oxazin-7-yl)phenol], the IC50 in assay [1] is 56.6 µM; in [3], 48.8 µM; in [4] it was 36.3 ± 6 µM; in assay [5], 9.98 ± 0.5 µM; in assay [7], 48.8 ± 12.2 µM. In addition, in [2], the “mean change of LPS-induced NO synthesis” value is on record as “greatest inhibition”. The “PPARγ activation, increase in beta-lactamase activity over media only control” value in assay [8] is “PPARγ agonist activity”. Besides, in assay [9], the “effect on proliferation of HUVSMCs induced by FCS” value is recorded as “significantly inhibited the proliferation”. The concentration for a half-maximal effect (EC50) in [6] stood at 22.5 µM.

Turning to `COc1ccc(C2=C(c3ccc(O)cc3)COc3cc4c(cc32)CN(Cc2ccc(Cl)cc2)CO4)cc1` [Compound 24, 4-(3-(4-Chlorobenzyl)-6-(4-methoxyphenyl)-2,3,4,8-tetrahydrochromeno[6,7-e][1,3]oxazin-7-yl)-phenol], the “mean change of LPS-induced TXB2 synthesis” value in [10] was “greatest inhibition”. The “mean change of LPS-induced NO synthesis” value in assay [2] is on record as “greatest inhibition”. Also, in assay [11], the “activity against CP70, HPAC and MM200 cell lines” value is recorded as “active”. For the same compound, the half-inhibitory concentration (IC50) was determined as 6.83 µM in assay [3], 14.6 µM in [4] and 8.6 µM in [5]. For the same compound, in assay [12], the “mean change of LPS-induced PGE2 synthesis” value was “greatest inhibition”. In assay [6], the concentration for a half-maximal effect (EC50) amounted to 24 µM.

As usually defined, the IC50 is the midpoint of a concentration-inhibition curve. In general, EC50 refers to the concentration that produces a half-maximal response.

The values are drawn from US8367659B2, “Oxazinyl isoflavonoid compounds, medicaments and use” (Marshall Edwards, Inc., priority 2007, dated 2013).
